ChEMBL document CHEMBL4342423, “An isoform-selective inhibitor of tropomyosin receptor kinase A behaves as molecular glue” (Bioorg Med Chem Lett, 2020)

Tests used:
[1] = molecular target: T1, BDNF/NT-3 growth factors receptor (Homo sapiens, UniProt Q16620); assay: Inhibition of wild type human N-terminal GST-fusion tagged TRKB kinase domain (456 to 822 residues) expressed in baculovirus expression system by HTRF assay
[2] = molecular target: T1, BDNF/NT-3 growth factors receptor; assay: Binding affinity to TRKB (unknown origin) assessed as dimerization by size exclusion chromatography

T1 sequence (Q16620 whole entry, the tested form may be a part): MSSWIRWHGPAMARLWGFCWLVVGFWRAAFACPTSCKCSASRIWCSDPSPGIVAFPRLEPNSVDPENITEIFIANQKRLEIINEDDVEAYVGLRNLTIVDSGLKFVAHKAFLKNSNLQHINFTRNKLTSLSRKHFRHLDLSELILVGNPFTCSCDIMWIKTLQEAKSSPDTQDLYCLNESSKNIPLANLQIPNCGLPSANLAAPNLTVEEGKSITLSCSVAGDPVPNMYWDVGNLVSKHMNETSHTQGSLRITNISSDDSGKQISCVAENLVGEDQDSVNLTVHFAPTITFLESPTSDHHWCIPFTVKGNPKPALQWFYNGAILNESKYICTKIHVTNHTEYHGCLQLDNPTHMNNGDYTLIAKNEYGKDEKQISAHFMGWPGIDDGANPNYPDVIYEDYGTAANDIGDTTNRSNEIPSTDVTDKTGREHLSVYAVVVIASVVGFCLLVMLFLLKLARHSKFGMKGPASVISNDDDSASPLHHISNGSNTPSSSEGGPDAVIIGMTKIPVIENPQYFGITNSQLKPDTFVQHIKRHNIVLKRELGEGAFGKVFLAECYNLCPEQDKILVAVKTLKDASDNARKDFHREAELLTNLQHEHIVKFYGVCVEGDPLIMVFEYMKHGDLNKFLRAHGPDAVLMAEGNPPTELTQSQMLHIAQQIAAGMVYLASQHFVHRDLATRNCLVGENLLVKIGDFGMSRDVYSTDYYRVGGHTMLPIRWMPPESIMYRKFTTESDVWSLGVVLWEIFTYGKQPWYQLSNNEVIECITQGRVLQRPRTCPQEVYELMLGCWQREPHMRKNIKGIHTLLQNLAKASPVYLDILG

Row | IC50 [1] [µM] | Activity [2] | SMILES
1 | 94 | Not Active | Nc1c(N2CCN(C3CCCCC3)CC2)cc(Nc2ccc(C(=O)O)cc2)c2c1C(=O)c1ccccc1C2=O
2 | 0.00093 | – | CC(C)Oc1cc(Nc2nc(N[C@@H](C)c3ccc(F)cn3)ncc2Cl)n[nH]1
